In ChEMBL document CHEMBL5463729, “Data for DCP probe BAY 1753011” (2023):
One block for each compound: values may come before it.

Tests used:
[1] = target: Hepatocyte growth factor receptor (Homo sapiens) (UniProt P08581); test: Inhibition of Met(h) at 10.0 µM in the Eurofins Kinase panel; details: Compound concentration 10.0 uM
[2] = target: Cannabinoid receptor 1 (Homo sapiens) (UniProt P21554); test: Inhibition of Cannabinoid CB1 at compound concentration of 10.0 uM in the Eurofins-Panlabs radioligand binding assay (Eurofins_assay_217050); set-up: ligand concentration 2 nM; details: Compound concentration 10.0 uM
[3] = target: Tyrosine-protein kinase JAK2 (Homo sapiens) (UniProt O60674); test: Inhibition of JAK2(h) at 10.0 µM in the Eurofins Kinase panel; details: Compound concentration 10.0 uM
Tyrosine-protein kinase JAK2 (Homo sapiens), sequence (O60674 whole entry): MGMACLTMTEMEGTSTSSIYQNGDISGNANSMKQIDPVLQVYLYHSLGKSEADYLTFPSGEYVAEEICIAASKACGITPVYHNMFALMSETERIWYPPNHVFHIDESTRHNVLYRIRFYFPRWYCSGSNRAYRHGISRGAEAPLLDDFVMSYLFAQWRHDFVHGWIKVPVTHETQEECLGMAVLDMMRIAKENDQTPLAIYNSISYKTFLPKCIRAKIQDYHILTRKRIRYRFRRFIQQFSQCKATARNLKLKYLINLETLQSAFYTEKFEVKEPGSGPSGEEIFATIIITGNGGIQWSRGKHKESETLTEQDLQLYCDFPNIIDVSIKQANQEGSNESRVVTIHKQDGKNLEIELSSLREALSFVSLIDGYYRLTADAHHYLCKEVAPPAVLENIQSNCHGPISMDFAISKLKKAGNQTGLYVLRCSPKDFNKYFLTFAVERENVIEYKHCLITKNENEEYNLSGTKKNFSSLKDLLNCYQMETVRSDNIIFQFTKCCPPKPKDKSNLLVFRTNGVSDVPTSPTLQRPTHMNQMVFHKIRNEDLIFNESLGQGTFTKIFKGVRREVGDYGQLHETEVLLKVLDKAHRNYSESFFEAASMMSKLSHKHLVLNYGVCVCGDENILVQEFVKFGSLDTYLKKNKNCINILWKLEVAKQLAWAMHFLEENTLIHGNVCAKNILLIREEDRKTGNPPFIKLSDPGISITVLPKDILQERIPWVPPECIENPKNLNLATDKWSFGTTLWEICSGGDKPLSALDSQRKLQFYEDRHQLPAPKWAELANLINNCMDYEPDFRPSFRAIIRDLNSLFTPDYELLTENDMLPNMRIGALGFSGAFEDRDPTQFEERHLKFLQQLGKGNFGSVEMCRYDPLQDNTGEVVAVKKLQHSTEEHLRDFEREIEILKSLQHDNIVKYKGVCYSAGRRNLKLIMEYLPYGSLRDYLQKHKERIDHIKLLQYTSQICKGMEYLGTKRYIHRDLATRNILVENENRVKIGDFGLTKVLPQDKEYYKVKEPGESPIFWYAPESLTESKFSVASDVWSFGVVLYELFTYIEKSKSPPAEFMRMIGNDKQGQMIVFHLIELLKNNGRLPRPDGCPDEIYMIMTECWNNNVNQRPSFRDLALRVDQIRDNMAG

[4] = target: STE20/SPS1-related proline-alanine-rich protein kinase (Homo sapiens) (UniProt Q9UEW8); test: Inhibition of STK39(h) at 10.0 µM in the Eurofins Kinase panel; details: Compound concentration 10.0 uM
[5] = target: Tyrosine-protein kinase Fgr (Homo sapiens) (UniProt P09769); test: Inhibition of Fgr(h) at 10.0 µM in the Eurofins Kinase panel; details: Compound concentration 10.0 uM
Rattus norvegicus = species: Rattus norvegicus; details: Compound concentration 10.0 uM
[6] = target: 5'-AMP-activated protein kinase catalytic subunit alpha-2 (Homo sapiens) (UniProt P54646); test: Inhibition of AMPKalpha2(h) at 10.0 µM in the Eurofins Kinase panel; details: Compound concentration 10.0 uM
5'-AMP-activated protein kinase catalytic subunit alpha-2 (Homo sapiens), sequence (P54646 whole entry, looked up): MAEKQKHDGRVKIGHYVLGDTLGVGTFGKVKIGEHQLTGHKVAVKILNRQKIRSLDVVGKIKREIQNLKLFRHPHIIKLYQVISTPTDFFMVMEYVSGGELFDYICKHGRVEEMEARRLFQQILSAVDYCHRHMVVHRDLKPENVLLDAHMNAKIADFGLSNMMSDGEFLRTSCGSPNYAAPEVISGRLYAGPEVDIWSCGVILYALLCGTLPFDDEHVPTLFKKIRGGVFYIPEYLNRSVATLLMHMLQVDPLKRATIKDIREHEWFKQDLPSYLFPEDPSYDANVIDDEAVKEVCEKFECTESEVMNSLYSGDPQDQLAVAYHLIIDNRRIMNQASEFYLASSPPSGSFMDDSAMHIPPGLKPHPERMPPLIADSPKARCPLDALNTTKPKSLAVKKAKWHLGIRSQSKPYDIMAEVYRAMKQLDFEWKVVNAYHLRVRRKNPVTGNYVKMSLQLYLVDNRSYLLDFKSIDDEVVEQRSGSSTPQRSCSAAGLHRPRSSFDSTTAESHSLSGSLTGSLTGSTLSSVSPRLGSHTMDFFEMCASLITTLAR

[7] = target: [Pyruvate dehydrogenase (acetyl-transferring)] kinase isozyme 2, mitochondrial (Homo sapiens) (UniProt Q15119); test: Inhibition of PDHK2(h) at 10.0 µM in the Eurofins Kinase panel; details: Compound concentration 10.0 uM
[8] = target: Inhibitor of nuclear factor kappa-B kinase subunit alpha (Homo sapiens) (UniProt O15111); test: Inhibition of IKKalpha(h) at 10.0 µM in the Eurofins Kinase panel; details: Compound concentration 10.0 uM
Inhibitor of nuclear factor kappa-B kinase subunit alpha (Homo sapiens), sequence (O15111 whole entry): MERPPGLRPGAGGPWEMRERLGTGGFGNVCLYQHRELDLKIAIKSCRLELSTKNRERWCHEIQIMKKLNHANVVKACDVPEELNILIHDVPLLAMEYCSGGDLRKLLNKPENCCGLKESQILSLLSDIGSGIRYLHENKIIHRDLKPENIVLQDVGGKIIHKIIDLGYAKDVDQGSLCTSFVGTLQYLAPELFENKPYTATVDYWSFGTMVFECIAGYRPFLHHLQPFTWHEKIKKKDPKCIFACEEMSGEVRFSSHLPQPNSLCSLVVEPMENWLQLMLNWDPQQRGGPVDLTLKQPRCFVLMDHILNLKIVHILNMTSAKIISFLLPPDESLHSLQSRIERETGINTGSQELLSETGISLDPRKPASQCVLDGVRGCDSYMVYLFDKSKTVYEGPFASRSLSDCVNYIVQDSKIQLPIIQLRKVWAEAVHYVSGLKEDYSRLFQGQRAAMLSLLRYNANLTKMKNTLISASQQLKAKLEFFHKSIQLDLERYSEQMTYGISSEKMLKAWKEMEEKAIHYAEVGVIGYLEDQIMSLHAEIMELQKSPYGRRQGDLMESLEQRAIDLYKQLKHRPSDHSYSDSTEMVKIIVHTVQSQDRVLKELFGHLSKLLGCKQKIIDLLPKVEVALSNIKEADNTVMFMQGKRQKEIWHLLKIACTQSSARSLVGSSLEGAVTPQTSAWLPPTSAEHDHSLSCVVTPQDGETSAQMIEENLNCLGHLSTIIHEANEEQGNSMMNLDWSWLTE

[9] = target: Histamine H3 receptor (Homo sapiens) (UniProt Q9Y5N1); details: Compound concentration 10.0 uM
MAO-A = MAO-A (Homo sapiens, UniProt P21397); test: Inhibition of Monoamine Oxidase MAO-A at compound concentration of 10.0 uM in the Eurofins-Panlabs enzyme assay (Eurofins_assay_140010); set-up: substrate with concentration 50 uM Kynuramine, incubation time 60 min, incubation temperature 37 C; details: human recombinant MAO-A expressed in insect Hi5 cells, probe Kynuramine, compound concentration 10 uM
Mus musculus = species: Mus musculus; test: Inhibition of Phorbol Ester at 10 µM in the Eurofins-Panlabs radioligand binding assay (Eurofins_assay_264500); set-up: ligand concentration 3 nM; details: Compound concentration 10.0 uM
[10] = target: Purinergic P2Y (Rattus norvegicus) (UniProt O35811+Q9EPX4+P49651+Q63371+P41232+O35881+Q6GUG4); details: Compound concentration 10.0 uM
[11] = target: Epidermal growth factor receptor (Homo sapiens) (UniProt P00533); test: Inhibition of Epidermal Growth Factor (EGF) at 10 µM in the Eurofins-Panlabs radioligand binding assay (Eurofins_assay_225510); details: Compound concentration 10.0 uM
[12] = target: Voltage-dependent N-type calcium channel subunit alpha-1B (Homo sapiens) (UniProt Q00975); test: Inhibition of Calcium Channel N-Type at 10 µM in the Eurofins-Panlabs radioligand binding assay (Eurofins_assay_216000); details: Rattus norvegicus; Compound concentration 10.0 uM
Oxytocin receptor = target: T1, Oxytocin receptor (Homo sapiens, UniProt P30559); test: Inhibition of Oxytocin at 1 µM in the Eurofins-Panlabs radioligand binding assay (Eurofins_assay_260900); set-up: ligand concentration 0.8 nM, non-specific ligand with concentration 1 µM Oxytocin, incubation time 2 h, incubation temperature 25°C
T1 sequence (P30559 whole entry): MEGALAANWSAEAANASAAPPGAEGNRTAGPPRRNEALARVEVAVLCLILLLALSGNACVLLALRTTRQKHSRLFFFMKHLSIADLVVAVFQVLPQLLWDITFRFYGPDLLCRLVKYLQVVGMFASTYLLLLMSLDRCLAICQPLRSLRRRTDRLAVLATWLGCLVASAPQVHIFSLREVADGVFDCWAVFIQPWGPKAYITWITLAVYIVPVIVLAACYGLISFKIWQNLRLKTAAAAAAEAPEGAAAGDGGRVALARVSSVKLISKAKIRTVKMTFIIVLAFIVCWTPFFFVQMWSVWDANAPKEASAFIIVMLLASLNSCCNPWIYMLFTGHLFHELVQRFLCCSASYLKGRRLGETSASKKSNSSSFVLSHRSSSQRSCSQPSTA

[13] = target: Calcium/calmodulin-dependent protein kinase type II subunit alpha (Homo sapiens) (UniProt Q9UQM7); test: Inhibition of CaMKIIalpha(h) at 10.0 µM in the Eurofins Kinase panel; details: Compound concentration 10.0 uM
[14] = target: Adenosine Transporter (Cavia porcellus) (UniProt H0V4R7+H0UUG1+H0V3Z5); test: Inhibition of Transporter, Adenosine at compound concentration of 10.0 uM in the Eurofins-Panlabs radioligand binding assay (Eurofins_assay_202000); assay type: protein assay; set-up: ligand concentration 0.5 nM, non-specific ligand with concentration 5 uM Nitrobenzylthioinosine, incubation time 30 min, incubation temperature 25 C; details: Compound concentration 10.0 uM
[15] = target: Gamma-aminobutyric acid type B receptor subunit 1 (Homo sapiens) (UniProt Q9UBS5); test: Inhibition of GABAB1A at compound concentration of 10.0 uM in the Eurofins-Panlabs radioligand binding assay (Eurofins_assay_228610); set-up: ligand concentration 4 nM; details: Compound concentration 10.0 uM
[16] = target: Protein kinase C alpha type (Homo sapiens) (UniProt P17252); test: Inhibition of Protein Serine/Threonine Kinase, PRKCA (PKCα) at 10 µM in the Eurofins-Panlabs enzyme assay (Eurofins_assay_180010); set-up: substrate with concentration Histone, incubation time 10 min, incubation temperature 25 °C; details: Compound concentration 10.0 uM
[17] = target: Matrix metalloproteinase-9 (Homo sapiens) (UniProt P14780); test: Inhibition of Peptidase, Matrix Metalloproteinase-9 (MMP-9) at 10 µM in the Eurofins-Panlabs enzyme assay (Eurofins_assay_114910); set-up: substrate with concentration; details: Compound concentration 10.0 uM
Vasopressin V1a receptor = Vasopressin V1a receptor (Homo sapiens, UniProt P37288); test: Inhibition of Vasopressin V1A at compound concentration of 10.0 uM in the Eurofins-Panlabs radioligand binding assay (Eurofins_assay_287530); set-up: ligand concentration 0.03 nM, non-specific ligand with concentration 1 uM (Arg8)-Vasopressin, incubation time 2 h, incubation temperature 25 C
Vasopressin V1a receptor, sequence (P37288 whole entry): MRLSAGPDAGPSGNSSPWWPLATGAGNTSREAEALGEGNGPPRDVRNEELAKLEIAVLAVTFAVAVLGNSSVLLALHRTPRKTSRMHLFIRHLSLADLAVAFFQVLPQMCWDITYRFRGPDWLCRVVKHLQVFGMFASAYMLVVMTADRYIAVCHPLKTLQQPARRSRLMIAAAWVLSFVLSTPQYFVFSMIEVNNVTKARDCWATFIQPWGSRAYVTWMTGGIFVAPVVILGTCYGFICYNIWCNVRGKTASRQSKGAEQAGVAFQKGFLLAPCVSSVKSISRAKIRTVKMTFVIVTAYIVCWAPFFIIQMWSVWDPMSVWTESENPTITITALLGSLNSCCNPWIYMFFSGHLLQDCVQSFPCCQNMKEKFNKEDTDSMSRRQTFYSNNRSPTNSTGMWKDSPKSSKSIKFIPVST

Sus scrofa = species: Sus scrofa; test: Inhibition of ATPase, Na+/K+, Heart at compound concentration of 10.0 uM in the Eurofins-Panlabs enzyme assay (Eurofins_assay_107710); set-up: substrate with concentration; details: Compound concentration 10.0 uM
[18] = target: Tyrosine-protein kinase Fer (Homo sapiens) (UniProt P16591); test: Inhibition of Fer(h) at 10.0 µM in the Eurofins Kinase panel; details: Compound concentration 10.0 uM
[19] = target: Prostaglandin E2 receptor EP4 subtype (Homo sapiens) (UniProt P35408); test: Inhibition of Prostanoid EP4 at 10 µM in the Eurofins-Panlabs radioligand binding assay (Eurofins_assay_268420); set-up: ligand concentration 1 nM; details: Compound concentration 10.0 uM

Hepatocyte growth factor receptor (Homo sapiens), sequence (P08581 whole entry): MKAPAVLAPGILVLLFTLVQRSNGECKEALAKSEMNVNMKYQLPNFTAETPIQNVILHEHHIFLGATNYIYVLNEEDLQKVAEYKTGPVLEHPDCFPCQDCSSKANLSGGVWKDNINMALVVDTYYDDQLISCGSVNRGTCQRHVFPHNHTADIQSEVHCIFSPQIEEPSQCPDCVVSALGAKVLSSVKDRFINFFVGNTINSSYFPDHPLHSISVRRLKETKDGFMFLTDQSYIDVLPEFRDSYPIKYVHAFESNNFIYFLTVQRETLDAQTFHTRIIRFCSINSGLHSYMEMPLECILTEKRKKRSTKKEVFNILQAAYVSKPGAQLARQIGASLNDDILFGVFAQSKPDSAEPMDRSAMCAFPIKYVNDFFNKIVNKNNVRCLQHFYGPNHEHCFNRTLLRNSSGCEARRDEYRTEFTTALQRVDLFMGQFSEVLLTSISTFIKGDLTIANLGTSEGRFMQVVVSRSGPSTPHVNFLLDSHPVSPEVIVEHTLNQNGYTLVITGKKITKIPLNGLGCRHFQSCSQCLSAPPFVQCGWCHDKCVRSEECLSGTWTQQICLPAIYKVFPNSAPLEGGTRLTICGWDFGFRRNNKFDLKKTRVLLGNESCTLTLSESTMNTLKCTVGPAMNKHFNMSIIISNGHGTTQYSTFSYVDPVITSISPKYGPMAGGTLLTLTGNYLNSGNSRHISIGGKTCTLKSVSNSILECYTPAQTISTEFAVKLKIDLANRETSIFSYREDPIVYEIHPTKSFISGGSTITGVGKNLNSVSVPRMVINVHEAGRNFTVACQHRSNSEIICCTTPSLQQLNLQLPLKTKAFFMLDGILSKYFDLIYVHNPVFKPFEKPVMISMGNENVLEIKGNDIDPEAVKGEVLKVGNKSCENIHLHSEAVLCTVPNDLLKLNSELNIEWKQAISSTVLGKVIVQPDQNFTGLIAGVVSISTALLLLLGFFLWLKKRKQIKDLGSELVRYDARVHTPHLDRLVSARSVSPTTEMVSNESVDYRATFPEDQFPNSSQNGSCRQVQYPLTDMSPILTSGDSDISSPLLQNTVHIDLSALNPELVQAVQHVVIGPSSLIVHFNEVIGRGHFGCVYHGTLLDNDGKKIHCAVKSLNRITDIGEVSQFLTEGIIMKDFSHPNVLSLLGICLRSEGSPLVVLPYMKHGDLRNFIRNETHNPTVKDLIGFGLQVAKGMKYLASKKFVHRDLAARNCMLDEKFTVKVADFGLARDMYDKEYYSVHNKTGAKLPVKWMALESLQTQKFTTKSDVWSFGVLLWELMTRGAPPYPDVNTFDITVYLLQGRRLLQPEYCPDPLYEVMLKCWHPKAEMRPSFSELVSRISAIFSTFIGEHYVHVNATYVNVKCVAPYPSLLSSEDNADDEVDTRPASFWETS

inhibition [1]: -3.84% | inhibition [2]: 19% | inhibition [3]: -4.95% | inhibition [4]: -4.72% | inhibition [5]: -7.12% | inhibition (Rattus norvegicus): -0.38% | inhibition [6]: -2.83% | inhibition [7]: -4.87% | inhibition [8]: -2.69%
Structure (SMILES): O=c1n(Cc2cncn2-c2cccc(Cl)c2)nc(-c2ccc(Cl)cc2)n1C[C@H](O)C(F)(F)F

Structure (SMILES): C[C@H](O)c1nc(Cn2nc(-c3ccc(Cl)cc3)n(C[C@H](O)C(F)(F)F)c2=O)nn1-c1cccc(Cl)c1 [PECAVAPTAN]
inhibition [9]: -1% | inhibition at 60 min, 10 µM (MAO-A): -3% (not active) | inhibition (Mus musculus): 3% | inhibition [10]: 0% | inhibition [11]: 14% | inhibition [12]: -2% | IC50 (Oxytocin receptor): 15.5 nM | Ki (Oxytocin receptor): 5.06 nM | inhibition [13]: -6.92% | inhibition [14]: 21% | inhibition [15]: -4% | inhibition [16]: -2% | inhibition [17]: -2% | IC50 (Vasopressin V1a receptor): 6.74 nM | Ki (Vasopressin V1a receptor): 1.33 nM | inhibition (Sus scrofa): 0% | inhibition [18]: -2.1% | inhibition [19]: 16%
